Patent US7425548B2, “Materials and methods for immune system stimulation” (Variety Chidren's Hospital, priority 2004, dated 2008)

Key:
RAW 264.7 cells = assay: RR1-induced TNF-α synthesis with and without CAPE, ELISA; type: cell-based, mouse; conditions: CAPE 10 μg/ml for 1 hour prior to RR1, all RR1 concentrations
Protocol: The cells were pre-incubated with 10 μg/ml CAPE for 1 hour in 0.5% FBS containing DMEM medium and replaced with medium containing RR1 at varying concentrations for 4 hour at 37° C. The medium was analyzed for secreted TNF-α using ELISA protocol.
RR1-induced TNF-α synthesis. RAW 264.7 cells (0.5×10^6/ml) were plated on 6-well plates with DMEM medium containing 0.5% FBS (starvation). Once the cells were attached, medium was replaced, RR1 was added at 0, 100, 500 and 1000 μg/ml doses and incubated at 37° C. for 24 hours. The medium was analyzed for the secreted TNF-α using the ELISA kit (BD BIOSCIENCES kit, San Jose, Calif.) based on the manufacturer's protocol.
To determine the effect of NF-κB inhibitor CAPE on TNF-α synthesis, RAW 264.7 cells were treated with 10 μg/ml of CAPE for 1 hour at 37° C. followed by treatment with RR1 (0-1000 μg/ml) overnight in the incubator. The secreted TNF-α in the medium was analyzed using ELISA (BD BIOSCIENCES, San Jose, Calif.).

RAW264.7 macrophages = assay: Opsonized binding and phagocytosis of FITC-zymosan A bioparticles; type: cell-based, mouse; conditions: 37° C.
Protocol: Monocytes were incubated with RR1 at 37° C. for 1 hour followed by FITC-labeled zymosan A bioparticles for another 1 hour at 37° C. The cells were washed and intracellular fluorescence measured in a Coulter Elite Flow cytometer.
Opsonized binding and Phagocytosis. To determine the effect of RR1 and laminarin on opsonized binding and phagocytosis of zymosan A particles, RAW 264.7 cells were treated with RR1 or laminarin (0 and 500 μg/ml) in DMEM at 37° C. for 1 hour. This will ensure the release of opsonins and facilitate opsonic binding. The cells were washed with PBS twice and incubated with zymosan A-FITC bioparticles at a ratio of 25 particles/cell at 37° C. for 1 hour. The cells were suspended in PBS after removing the unbound zymosan particles by extensive washing with the medium, and the intracellular fluorescence analyzed in a Coulter Elite flow cytometer. The fluorescence intensity was expressed as percentage of control.

| Compound | effect on RR1-induced TNF-α synthesis (RAW 264.7 cells) | inhibitory effect on opsonized binding and phagocytosis of zymosan A bioparticles (RAW264.7 macrophages; 500 μg/ml, 1 hour) | inhibition of zymosan bioparticle internalization (RAW264.7 macrophages; opsonized) |
| --- | --- | --- | --- |
| O=C(/C=C/c1ccc(O)c(O)c1)OCCc1ccccc1 [CAPE, caffeic acid phenethyl ester, reference compound] | completely inhibited |  |  |
| Laminarin [reference compound] |  | absolute inhibitory effect | about 90% |
